Assay results taken from patent US7652046B2, “Substituted thienopyrrole carboxylic acid amides, pyrrolothiazole carboxylic acid amides, and related analogs as inhibitors of casein kinase I” (Aventis Pharmaceuticals Inc., priority 2004, dated 2010).

Molecular target: T1, Casein Kinase Iε (Homo sapiens, UniProt P49674)
T1 construct: made in house
Experiment: Casein Kinase Epsilon 33P-ATP Filter Plate Assay
Type: biochemical
From the text: Casein Kinase Epsilon ^33P-ATP Filter Plate Assay for Screening CKIε Inhibitors
Purpose: This assay measures the ability of compounds to inhibit the phosphorylation of the substrate casein by the enzyme casein kinase 1ε using an in vitro ^33P-ATP filtration assay. […] Materials:
Equipment: • Beckman Biomek 2000 Liquid Handling Robot • Beckman Multimek 96 Automated 96 Channel Pipettor • Millipore Vacuum Manifold Basic Kit # MAVM0960R • Titertek Multidrop Liquid Dispenser • Packard TopCount NXT Liquid Scintillation Counter
Enzyme: • Casein Kinase 1ε final concentration 0.58 mg/ml obtained from fermentation and purification processes as are well known to one skilled in the art. The above are stored as 100 μL aliquots at minus 80° C.
Compounds: • Supply compounds for testing as frozen 10 mM compound stock dissolved in 100% DMSO. Assay Conditions:
Final total assay volume per well is equal to 50 μL that one prepares as follows: • 5 μL of diluted compound stock (10, 1, 0.1, 0.01 or 0.001 μM), • 5 μL of dephosphorylated casein final concentration 0.2 μg/μL, • 20 μL of CK1ε final concentration 3 ng/μL, and • 20 μL of γ-^33P-ATP final concentration 0.02 μCi/μL mixed with cold ATP (10 μM final). Methodology: • 1. Prepare 500 mL of fresh assay buffer: 50 mM Tris pH 7.5, 10 mM MgCl2, 2 mM DTT and 1 mM EGTA • 2. Obtain compounds to be evaluated as 10 μL of 10 mM stock dissolved in 100% DMSO. Use a Biomek 2000 liquid handling robot, make serial dilutions to yield 10, 1, 0.1, 0.01 and 0.001 μM final compound dilutions added as 5 μL additions to Falcon U bottom plates. […] A routine screening assay will consist of 32 compounds, which equals 4 assay plates. • 3. Assay plate maps are set up according to the following pattern CK1ePlateMap.xls
• 4. Add 5 μL of compound as indicated, then add 5 μL of dephosphorylated casein (dissolved in distilled H20)(0.2 μg/μL) and 20 μL CK1ε (3 ng/μL) to the appropriate wells. • 5. Finally add 20 μL γ-^33P-ATP (0.02 μCi/μL)/10 μM cold ATP (equals approximately 2×10^6 CPM per well). • 6. Vortes the Falcon U-Bottom assay plate containing the above 50 μL reaction volume and then incubate at room temperature for 2 hours. • 7. At the end of 2 hours, stop the reaction by the addition of 65 μL of ice cold 2 mM cold ATP (made up in assay buffer) to the assay plates using a Beckman Multimek. • 8. At the same time add 25 μL 100% ice cold TCA made up in distilled H20 to a matching number of Millipore MAPH filter plates. • 9. Using a handheld 8-channel pipettor, transfer 100 μL of the reaction mixture from the Falcon U-Bottom Plate to the Millipore MAPH filter plates presoaked with TCA. • 10. Mix the Millipore MAPH filter plates gently and allow to sit at room temperature for at least 30 minutes to precipitate the proteins. • 11. After 30 minutes, place the filter plates on a Millipore vacuum manifold and filter at no more than 8 mm Hg as the MAPH filters tend to “air lock” at higher vacuum settings. • 12. Wash the filter plates sequentially and filter with 2×150 μL 20% TCA, 2×150 μL 10% TCA and 2×150 μL 5% TCA (total of 6 washes per plate/900 μL per well). • 13. Allow the plates to dry overnight at room temperature. The next day add 40 μL Packard Microscint-20 Scintillation Fluid per well using a Titertek Multidrop dispenser; seal the plates and count for 2 minutes/well in a Packard Topcount NXT Scintillation Counter (to provide CPM values/well). Calculation: • 1. Import Counts Per Minute (CPM) data into a proprietary data calculation and archiving database (Activity Base by IDBS version 5.0). • 2. Column 1 for each plate reflects total phosphorylation activity of the enzyme in the absence of any inhibiting compound and thus represents 100%. Column 12 reflects any nonspecific phosphorylation/retained radioactivity activity in the absence of inhibiting compound and enzyme.

T1 sequence (P49674 whole entry): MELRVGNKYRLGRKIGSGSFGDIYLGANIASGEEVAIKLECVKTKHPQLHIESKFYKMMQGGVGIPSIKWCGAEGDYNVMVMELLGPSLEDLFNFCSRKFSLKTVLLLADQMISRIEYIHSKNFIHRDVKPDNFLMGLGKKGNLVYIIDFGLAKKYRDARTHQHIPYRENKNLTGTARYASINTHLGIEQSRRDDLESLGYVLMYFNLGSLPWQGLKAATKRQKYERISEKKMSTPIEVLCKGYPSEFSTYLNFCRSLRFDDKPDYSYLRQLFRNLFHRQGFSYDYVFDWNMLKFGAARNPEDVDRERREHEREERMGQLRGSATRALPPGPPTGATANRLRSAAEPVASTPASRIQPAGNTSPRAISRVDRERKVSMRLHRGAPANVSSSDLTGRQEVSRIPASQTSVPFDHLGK

Ki [nM]	SMILES
64	NC(=O)c1[nH]c2sccc2c1Sc1ccccn1 [IIa, 4-(pyridin-2-ylsulfanyl)-6H-thieno[2,3-b]pyrrole-5-carboxylic acid amide]
1070	NC(=O)c1[nH]c2sccc2c1Sc1ccncc1 [IId, 4-(Pyridin-4-ylsulfanyl)-6H-thieno[2,3-b]-pyrrole-5-carboxylic acid amide]
109	NC(=O)c1[nH]c2sccc2c1Sc1cc(Cl)cc(Cl)c1 [IIe, 4-(3,5-Dichlorophenyl-sulfanyl)-6H-thieno[2,3-b]pyrrole-5-carboxylic acid amide]
1450	NC(=O)c1[nH]c2sccc2c1Sc1cccs1 [IIf, 4-(Thiophen-2-yl-sulfanyl)-6H-thieno[2,3-b]pyrrole-5-carboxylic acid amide]
24.7	COc1cccc(Sc2c(C(N)=O)[nH]c3sccc23)c1 [IIh, 4-(3-Methoxyphenyl-sulfanyl)-6H-thieno[2,3-b]pyrrole-5-carboxylic acid amide]
112	NC(=O)c1[nH]c2sccc2c1Sc1cccc(Cl)c1 [IIj, 4-(3-Chlorophenyl-sulfanyl)-6H-thieno[2,3-b]pyrrole-5-carboxylic acid amide]
70.6	Cc1cccc(Sc2c(C(N)=O)[nH]c3sccc23)c1 [IIk, 4-(3-Methylphenyl-sulfanyl)-6H-thieno[2,3-b]pyrrole-5-carboxylic acid amide]
68	COc1cccc(Sc2c(C(N)=O)[nH]c3sc(C)nc23)c1 [IIm, 6-(3-Methoxyphenyl-sulfanyl)-2-methyl-4H-pyrrolo[3,2-d]thiazole-5-carboxylic acid amide]
4030	Cc1nc2c(Sc3cccc(OC(F)(F)F)c3)c(C(N)=O)[nH]c2s1 [IIp, 6-(3-Trifluoromethoxy-phenylsulfanyl)-2-methyl-4H-pyrrolo[3,2-d]thiazole-5-carboxylic acid amide]
334	NC(=O)c1[nH]c2sc(Sc3ccccc3)nc2c1Sc1ccccc1 [IIq, 2,6-Bis-phenylsulfanyl-4H-pyrrolo[3,2-d]thiazole-5-carboxylic acid amide]
333	COc1cccc(Sc2nc3c(Sc4cccc(OC)c4)c(C(N)=O)[nH]c3s2)c1 [IIr, 2,6-Bis-(3-methoxy-phenylsulfanyl)-4H-pyrrolo[3,2-d]thiazole-5-carboxylic acid amide]
544	NC(=O)c1[nH]c2ccsc2c1Sc1ccccc1 [Ia, 6-Phenylsulfanyl-4H-thieno[3,2-b]pyrrole-5-carboxylic acid amide]
157	NC(=O)c1[nH]c2ccsc2c1Sc1cccc(F)c1 [Ib, 6-(3-Fluorophenyl-sulfanyl)-4H-thieno[3,2-b]pyrrole-5-carboxylic acid amide]
> 10000	NC(=O)c1[nH]c2ccsc2c1Sc1ccc(Cl)cc1 [Ic, 6-(4-Chlorophenyl-sulfanyl)-4H-thieno[3,2-b]pyrrole-5-carboxylic acid amide]
159	NC(=O)c1[nH]c2ccsc2c1Sc1ccccn1 [Ie, 6-(Pyridin-2-ylsulfanyl)-4H-thieno[3,2-b]pyrrole-5-carboxylic acid amide]
3090	Cc1ccc(Sc2c(C(N)=O)[nH]c3ccsc23)cc1 [If, 6-p-Tolylsulfanyl-4H-thieno[3,2-b]pyrrole-5-carboxylic acid amide]
915	NC(=O)c1[nH]c2ccsc2c1Sc1cccs1 [Ig, 6-(Thiophen-2-yl-sulfanyl)-4H-thieno[3,2-b]pyrrole-5-carboxylic acid amide]

Ki [nM]	SMILES
71	NC(=O)c1[nH]c2ccsc2c1Sc1cc(Cl)cc(Cl)c1 [Ih, 6-(3,5-Dichloro-phenylsulfanyl)-4H-thieno[3,2-b]pyrrole-5-carboxylic acid amide]
1680	NC(=O)c1[nH]c2ccsc2c1Sc1ccncc1 [Ii, 6-(Pyridin-4-ylsulfanyl)-4H-thieno[3,2-b]pyrrole-5-carboxylic acid amide]
116	Cc1cccc(Sc2c(C(N)=O)[nH]c3ccsc23)c1 [Ij, 6-m-Tolylsulfanyl-4H-thieno[3,2-b]pyrrole-5-carboxylic acid amide]
468	Cc1ccccc1Sc1c(C(N)=O)[nH]c2ccsc12 [Ik, 6-o-Tolylsulfanyl-4H-thieno[3,2-b]pyrrole-5-carboxylic acid amide]
324	NC(=O)c1[nH]c2ccsc2c1Sc1cccc(Cl)c1Cl [Il, 6-(2,3-Dichloro-phenylsulfanyl)-4H-thieno[3,2-b]pyrrole-5-carboxylic acid amide]
1270	NC(=O)c1[nH]c2ccsc2c1Sc1cc(Cl)ccc1Cl [Im, 6-(2,5-Dichloro-phenylsulfanyl)-4H-thieno[3,2-b]pyrrole-5-carboxylic acid amide]
238	CCc1ccccc1Sc1c(C(N)=O)[nH]c2ccsc12 [In, 6-(2-Ethylphenylsulfanyl)-4H-thieno[3,2-b]pyrrole-5-carboxylic acid amide]
78.7	NC(=O)c1[nH]c2ccsc2c1Sc1cccc(Br)c1 [Io, 6-(3-Bromo-phenylsulfanyl)-4H-thieno-[3,2-b]pyrrole-5-carboxylic acid amide]
357	Cc1cc(C)cc(Sc2c(C(N)=O)[nH]c3ccsc23)c1 [Ip, 6-(3,5-Dimethylphenylsulfanyl)-4H-thieno[3,2-b]pyrrole-5-carboxylic acid amide]
38	COc1cccc(Sc2c(C(N)=O)[nH]c3ccsc23)c1 [Iq, 6-(3-Methoxy-phenylsulfanyl)-4H-thieno[3,2-b]pyrrole-5-carboxylic acid amide]
331	COc1ccccc1Sc1c(C(N)=O)[nH]c2ccsc12 [Ir, 6-(2-Methoxy-phenylsulfanyl)-4H-thieno[3,2-b]pyrrole-5-carboxylic acid amide]
481	NC(=O)c1[nH]c2ccsc2c1Sc1ccccc1C(F)(F)F [Is, 6-(2-Trifluoromethyl-phenylsulfanyl)-4H-thieno[3,2-b]pyrrole-5-carboxylic acid amide]
425	NC(=O)c1[nH]c2ccsc2c1Sc1ccccc1F [It, 6-(2-Fluoro-phenylsulfanyl)-4H-thieno[3,2-b]pyrrole-5-carboxylic acid amide]
562	NC(=O)c1[nH]c2ccsc2c1Sc1cccc(OC(F)(F)F)c1 [Iu, 6-(3-Trifluoromethoxy-phenylsulfanyl)-4H-thieno[3,2-b]pyrrole-5-carboxylic acid amide]
4550	NC(=O)c1[nH]c2ncsc2c1Sc1ccccc1 [Iv, 6-Phenylsulfanyl-4H-pyrrolo[2,3-d]thiazole-5-carboxylic acid amide]
2030	NC(=O)c1[nH]c2ncsc2c1Sc1cccc(F)c1 [Iw, 6-(3-Fluoro-phenylsulfanyl)-4H-pyrrolo[2,3-d]thiazole-5-carboxylic acid amide]
1750	NC(=O)c1[nH]c2ncsc2c1Sc1ccccn1 [Ix, 6-(Pyridin-2-ylsulfanyl)-4H-pyrrolo[2,3-d]thiazole-5-carboxylic acid amide]
